According to patent US20250145601A1, “NOVEL BICYCLIC COMPOUNDS AS RAD51 INHIBITORS” (SATYA THERAPEUTICS, INC., priority 2022, published 2025):

system: MDA MB 231 cells; assay: Antiproliferation assay in MDA MB 231 cells (Cell Titer Glo); assay type: cell-based; details: Homo sapiens, MDA-MB-231, 216 h, MDAMB231 cell line, 9 day treatment, racemic compounds (Table 2)
Procedure, shortened: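 Treated for 9 days in total with rising doses, MDA MB 231 cells (250/well, 37° C, 5% CO2) got fresh compound on day 5. Viability by Cell Titer Glo luminescence (ATP), with cell-free wells subtracted as blank.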

`CCC(=O)N1N=C(c2c(C)c3ccsc3[nH]c2=O)CC1c1ccc(CF)cc1` (stereo not drawn) [Example 68, 5-(5-(4-(fluoromethyl)phenyl)-1-propionyl-4,5-dihydro-1H-pyrazol-3-yl)-4-methylthieno[2,3-b]pyridin-6(7H)-one] and `CCC(=O)N1N=C(c2c(C)c3ccsc3[nH]c2=O)CC1c1ccc(Cl)cc1` (racemic) [Example 28, 5-(5-(4-chlorophenyl)-1-propionyl-4,5-dihydro-1H-pyrazol-3-yl)-4-methylthieno[2,3-b]pyridin-6(7H)-one] cannot be ordered by inhibition at 10 µM: ≥ 50% for the first, ≥ 50% for the second.

`CCC(=O)N1N=C(c2c(C)c3ccsc3[nH]c2=O)CC1c1ccc(C)cc1F` (racemic) [Example 66, 5-(5-(2-fluoro-4-methylphenyl)-1-propionyl-4,5-dihydro-1H-pyrazol-3-yl)-4-methylthieno[2,3-b]pyridin-6(7H)-one] and `CCC(=O)N1N=C(c2c(C)c3ccsc3[nH]c2=O)CC1c1ccc(C)s1` (stereo not drawn) [Example 41, 5-(5-(5-methylthiophen-2-yl)-1-propionyl-4,5-dihydro-1H-pyrazol-3-yl)-4-methylthieno[2,3-b]pyridin-6(7H)-one] cannot be ordered by inhibition at 10 µM: ≥ 50% for the first, ≥ 50% for the second.

`CCC(=O)N1N=C(c2c(C)c3c(C)cccc3[nH]c2=O)CC1c1ccc(C)cc1` (stereo not drawn) [Example 76, 4,5-dimethyl-3-(1-propionyl-5-(p-tolyl)-4,5-dihydro-1H-pyrazol-3-yl)quinolin-2(1H)-one] and `CCC(=O)N1N=C(c2c(C)c3ccc(C)cc3[nH]c2=O)CC1c1ccc(C)cc1` (stereo not drawn) [Example 75, 4,7-dimethyl-3-(1-propionyl-5-(p-tolyl)-4,5-dihydro-1H-pyrazol-3-yl)quinolin-2(1H)-one] cannot be ordered by inhibition at 10 µM: ≥ 50% for the first, ≥ 50% for the second.

`CCC(=O)N1N=C(c2c(C)c3ccsc3[nH]c2=O)CC1c1cnc(C)cc1Cl` (stereo not drawn) [Example 56, 5-(5-(4-chloro-6-methylpyridin-3-yl)-1-propionyl-4,5-dihydro-1H-pyrazol-3-yl)-4-methylthieno[2,3-b]pyridin-6(7H)-one] and `CCC(=O)N1N=C(c2c(C)c3ccsc3[nH]c2=O)CC1c1cnc(C)cc1OC` (stereo not drawn) [Example 53, 5-(5-(4-methoxy-6-methylpyridin-3-yl)-1-propionyl-4,5-dihydro-1H-pyrazol-3-yl)-4-methylthieno[2,3-b]pyridin-6(7H)-one] cannot be ordered by inhibition at 10 µM: ≥ 50% for the first, < 50% for the second.

`CCC(=O)N1N=C(c2c(C)c3ccsc3[nH]c2=O)CC1c1ccc(C)nc1` (racemic) [Example 45, 4-methyl-5-(5-(6-methylpyridin-3-yl)-1-propionyl-4,5-dihydro-1H-pyrazol-3-yl)thieno[2,3-b]pyridin-6(7H)-one] and `CCC(=O)N1N=C(c2c(C)c3ccsc3[nH]c2=O)CC1c1ccc(OC)cc1` (racemic) [Example 20, 5-(5-(4-Methoxyphenyl)-1-propionyl-4,5-dihydro-1H-pyrazol-3-yl)-4-methylthieno-[2,3-b]pyridin-6(7H)-one] cannot be ordered by inhibition at 10 µM: ≥ 50% for the first, ≥ 50% for the second.

`CCC(=O)Nc1ccc(C2CC(c3c(C)c4cc(Cl)ccc4[nH]c3=O)=NN2C(=O)CC)cc1` (stereo not drawn) [Example 8, N-(4-(3-(6-chloro-4-methyl-2-oxo-1,2-dihydroquinolin-3-yl)-1-propionyl-4,5-dihydro-1H-pyrazol-5-yl)phenyl)propionamide] and `CCC(=O)N1N=C(c2c(C)c3cc(Cl)ccc3[nH]c2=O)CC1c1ccc(C)cc1` (stereo not drawn) [Example 59, 6-chloro-4-methyl-3-(1-propionyl-5-(p-tolyl)-4,5-dihydro-1H-pyrazol-3-yl)quinolin-2(1H)-one] cannot be ordered by inhibition at 10 µM: ≥ 50% for the first, ≥ 50% for the second.

`CCC(=O)N1N=C(c2c(C)c3nc(Cl)ccc3[nH]c2=O)CC1c1ccc(OC)cc1` (stereo not drawn) [Example 16, 6-chloro-3-(5-(4-methoxyphenyl)-1-propionyl-4,5-dihydro-1H-pyrazol-3-yl)-4-methyl-1,5-naphthyridin-2(1H)-one] and `CCC(=O)N1N=C(c2c(C)c3ccsc3[nH]c2=O)CC1c1ccc(C(F)F)cc1` (stereo not drawn) [Example 43, 5-(5-(4-(difluoromethyl)phenyl)-1-propionyl-4,5-dihydro-1H-pyrazol-3-yl)-4-methylthieno[2,3-b]pyridin-6(7H)-one] cannot be ordered by inhibition at 10 µM: ≥ 50% for the first, ≥ 50% for the second.

same assay, conditions: Homo sapiens, MDA-MB-231, 216 h, MDAMB231 cell line, 9 day treatment, separated enantiomers A/B (Table 3)

With `CCC(=O)N1N=C(c2c(C)c3ccccc3[nH]c2=O)CC1c1ccc(C)cc1` (single isomer, unassigned) [Example 60B] the inhibition at 10 µM was ≥ 50%.
